Legend:
[1] = target: T1, HCV NS5B (Hepatitis C virus genotype 1b, UniProt Q9WMX2); test: HCV NS5B RdRp enzyme assay (preincubation protocol); assay type: biochemical; conditions: HCV NS5B RdRp genotype 1b
T1 construct: The protein was expressed with an 18 amino acid C-terminal truncation to enhance the solubility; made in house; host or cells: E. coli BL21(DE3)
In short: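 Preincubation format uses C-terminally truncated (Δ18) NS5B 1b from E. coli at 14 nM, added to compound before polyA template (0.2 nM), 3H-UTP (0.29 μM) and oligo-dT12 primer precaptured on SPA beads (20 nM). Buffer was 20 mM Hepes pH 7.5, 2% DMSO, run 4 h at 30° C. IC50 came from seven concentrations.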

[2] = tested on: HCV replicon cells; test: HCV replicon FRET assay; assay type: cell-based; conditions: Hepatitis C virus
In short: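 Huh-7-derived HCV replicon cells (with or without Renilla luciferase reporter) incubated with titrated compound at 37° C. Lysed cells then read by NS3 cleavage of EDANS/DABCYL FRET peptide (20 μM, 340/490 nm, kinetic) or by Dual-Glo luciferase. EC50 is concentration giving 50% signal reduction after protease-inhibitor background subtraction; Alamar blue gives cytotoxicity.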

T1 sequence (Q9WMX2 2420-2992): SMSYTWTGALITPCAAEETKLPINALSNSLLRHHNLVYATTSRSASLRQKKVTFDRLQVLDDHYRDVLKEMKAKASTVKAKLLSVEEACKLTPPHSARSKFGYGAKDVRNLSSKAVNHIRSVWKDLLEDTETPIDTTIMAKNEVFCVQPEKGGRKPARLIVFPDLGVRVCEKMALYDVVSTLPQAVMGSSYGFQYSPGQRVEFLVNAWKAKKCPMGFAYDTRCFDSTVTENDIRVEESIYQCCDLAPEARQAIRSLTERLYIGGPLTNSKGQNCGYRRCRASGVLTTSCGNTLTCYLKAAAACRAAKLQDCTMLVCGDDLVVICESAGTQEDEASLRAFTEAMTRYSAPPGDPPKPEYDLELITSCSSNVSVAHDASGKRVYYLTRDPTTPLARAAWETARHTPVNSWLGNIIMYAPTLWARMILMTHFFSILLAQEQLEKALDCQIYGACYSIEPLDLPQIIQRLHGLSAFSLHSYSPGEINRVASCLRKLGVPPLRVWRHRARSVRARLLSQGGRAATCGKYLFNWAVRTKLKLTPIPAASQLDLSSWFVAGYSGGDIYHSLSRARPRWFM

SMILES | IC50 [1] | EC50 [2]
O=C(O)c1ccc2c(C3CCCCC3)c3n(c2c1)CC(c1nnc(CC2CCOCC2)o1)=Cc1ccccc1-3 [Example 44, 13-cyclohexyl-6-[5-[(tetrahydro-2H-pyran-4-yl)methyl]-1,3,4-oxadiazol-2-yl]-7H-indolo[2,1-a][2]benzazepine-10-carboxylic acid] | 1 to 500 nM | > 500 nM
O=C(O)c1ccc2c(C3CCCCC3)c3n(c2c1)CC(c1ccoc1)=Cc1ccccc1-3 [Example 45, 13-Cyclohexyl-6-(furan-3-yl)-7H-indolo{2,1-a][2]benzazepine-10-carboxylic Acid] | 1 to 500 nM | > 500 nM
COC(=O)CCc1cnc(C2=Cc3cc(OC)ccc3-c3c(C4CCCCC4)c4ccc(C(=O)OC)cc4n3C2)o1 [Example 46, Methyl 13-cyclohexyl-3-methoxy-6-(5-(3-methoxy-3-oxopropyl)-1,3-oxazol-2-yl)-7H-indolo[2,1-a][2]benzazepine-10-carboxylate] | > 500 nM | > 500 nM
COC(=O)c1ccc2c(C3CCCCC3)c3n(c2c1)CC(c1ncc(CCC(=O)O)o1)=Cc1cc(OC)ccc1-3 [Example 47, 3-(2-(13-Cyclohexyl-3-methoxy-10-(methoxycarbonyl)-7H-indolo[2,1-a][2]benzazepin-6-yl)-1,3-oxazol-5-yl)propanoic acid] | 1 to 500 nM | > 500 nM
COC(=O)c1ccc2c(C3CCCCC3)c3n(c2c1)CC(c1ncc(CCC(=O)N2CCOCC2)o1)=Cc1cc(OC)ccc1-3 [Example 48, Methyl 13-cyclohexyl-3-methoxy-6-(5-(3-(4-morpholinyl)-3-oxopropyl)-1,3-oxazol-2-yl)-7H-indolo[2,1-a][2]benzazepine-10-carboxylate] | > 500 nM | > 500 nM
COc1ccc2c(c1)C=C(c1ncco1)Cn1c-2c(C2CCCCC2)c2ccc(C(=O)O)cc21 [Example 56, 13-Cyclohexyl-3-methoxy-6-(1,3-oxazol-2-yl)-7H-indolo[2,1-a][2]benzazepine-10-carboxylic acid] | 1 to 500 nM | > 500 nM
COc1ccc2c(c1)C=C(c1ncco1)Cn1c-2c(C2CCCCC2)c2ccc(C(=O)NS(=O)(=O)N(C)C)cc21 [Example 57, 13-Cyclohexyl-N-((dimethylamino)sulfonyl)-3-methoxy-6-(1,3-oxazol-2-yl)-7H-indolo[2,1-a][2]benzazepine-10-carboxamide] | 1 to 500 nM | 1 to 500 nM
COc1ccc2c(c1)CC(c1ncco1)Cn1c-2c(C2CCCCC2)c2ccc(C(=O)NS(=O)(=O)N(C)C)cc21 (stereo not shown) [Example 58, 13-Cyclohexyl-N-((dimethylamino)sulfonyl)-3-methoxy-6-(1,3-oxazol-2-yl)-6,7-dihydro-5H-indolo[2,1-a][2]benzazepine-10-carboxamide] | 1 to 500 nM | 1 to 500 nM

— patent US7456165B2, “HCV NS5B inhibitors” (Bristol-Myers Squibb Company, priority 2006, dated 2008)
